Patent publication US5952298A, “Cryptophycins” (priority 1995, dated 1999)
Entries after “also recorded” stand apart in the source; their conditions may differ. Where two headings read alike, the source gives them in different places.

Columns and labels:
[1] = tested on: Human ovarian carcinoma cells (SKOV3); test: SKOV3 cell proliferation (SRB staining, Example 10); assay type: cell-based; details: SKOV3 treated 24 hours with IC50 dose, then drug-free medium
[2] = tested on: A-10 rat aortic smooth muscle cells; assay type: cell-based
Experimental: A-10 cells were grown to near-confluency on glass coverslips in BME/10% FBS. Compounds in PBS were added to the indicated final concentrations and cells were incubated for an additional 24 hours. For the staining of microtubules and intermediate filaments, the cells were fixed with cold methanol and incubated with PBS containing 10% calf serum to block nonspecific binding sites. Cells were then incubated at 37° C. for 60 min with either monoclonal anti-β-tubulin or with monoclonal anti-vimentin at dilutions recommended by the manufacturer. Bound primary antibodies were subsequently visualized by a 45-minute incubation with fluorescein-conjugated rabbit antimouse IgG. The coverslips were mounted on microscope slides and the fluorescence patterns were examined and photographed using a Zeiss Photomicroscope Ill equipped with epifluorescence optics for fluorescein. […] PBS containing 100 nM TRITC-phalloidin was then added and the mixture was allowed to incubate for 45 min at 37° C. The cells were washed rapidly three times with PBS before the coverslips were mounted and immediately photographed as described above.
After 24 hours, microtubules and vimentin intermediate filaments were visualized by indirect immunofluorescence and microfilaments were stained using TRITC-phalloidin. The morphological effects of each drug were examined. […] Vimentin intermediate filaments were also evenly distributed throughout the cytoplasm, while bundles of microfilaments were concentrated along the major axis of the cell.

[3] = tested on: murine leukemia (L1210 or P388), murine solid tumor, human solid tumor and low malignancy fibroblast (LML) cells
[4] = tested on: Mam 16/Taxol (taxol-resistant mammary #16/C/RP); test: In vivo activity, SC Mam 16/Taxol tumor; details: Exp 1733, 5 IV inj., 16.5 mg/kg total dose
Experimental: (§1) Gross log kill is defmed as T-C/3.2 Td where T is the median time in days for the tumors of the treated group to reach 750 mg, C is the median time in days for the tumors of the control group to reach 750 mg, and Td is the tumor volume doubling time. […] An activity rating of +++ to ++++, which is indicative of clinical activity, is needed to effect partial or complete regression of 100-300 mg size masses of most transplanted solid tumors of mice.

strains of Cryptococcus = details: found by researchers at Merck; cited from earlier work
[5] = tested on: colon adenocarcinoma #38 (Colon 38, C38); details: Exp 1560; SC Colon 38; 8 IV inj.; 10.3 mg/kg total dose
[6] = tested on: SKOV3 (human ovarian carcinoma); test: Cytotoxicity against SKOV3 cell line (Table 2); assay type: cell-based
[7] = tested on: Mam 16/C (taxol-sensitive mammary #16/C); test: In vivo activity, SC Mam 16/C tumor; details: Exp 1720, 5 IV inj., 13.2 mg/kg total dose
H125 Human Adenosq-lung = details: Exp 1823; SC H125 Human Adenosq-lung; 8 IV inj.; 14.4 mg/kg total dose
Experimental: as §1

[8] = tested on: LoVo (human colon carcinoma); test: Cytotoxicity against LoVo cell line; assay type: cell-based
M17/0 (Adr. Sens.) = test: In vivo activity, SC M17/0 tumor; details: Exp 1833; SC M17/0 (Adr. Sens.); 5 IV inj.; 5.4 mg/kg total dose
Experimental: as §1

[9] = tested on: colon adenocarcinoma #51 (Colon 51); test: In vivo activity, SC Colon 51 tumor; details: Exp 1636, 7 IV inj., 28.1 mg/kg total dose
MX-1 Human Breast = test: In vivo activity, SC MX-1 tumor; details: Exp 1806; SC MX-1 Human Breast; 8 IV inj.; 12 mg/kg total dose
Experimental: as §1

[10] = tested on: murine and human tumors implanted in mice
Experimental: as §1

Human Sm Cell L. DMS273 = test: In vivo activity, SC DMS273 tumor; details: Exp 1596; SC Human Sm Cell L. DMS273 SCID; 6 IV inj.; 7.3 mg/kg total dose
Experimental: as §1

LNCaP Human Prostate = test: In vivo activity, SC LNCaP tumor; details: Exp 1841, 6 IV inj., 6.5 mg/kg total dose
Experimental: Gross log kill is defmed as T-C/3.2 Td where T is the median time in days for the tumors of the treated group to reach 750 mg, C is the median time in days for the tumors of the control group to reach 750 mg, and Td is the tumor volume doubling time.

[11] = tested on: KB (human nasopharyngeal carcinoma); test: Cytotoxicity against KB cell line; assay type: cell-based
[12] = tested on: tumor (leukemia) and normal cell (CFUGM) lines; test: Valeriote assay; assay type: cell-based; details: 5 μg/disk
Experimental: ^b N = nonselective towards tumor (leukemia) and normal cell (CFUGM)
LL = lymphocytic leukemia selective (ZL1210 - ZCFUM ≥ 25
ML = acute myelogenous leukemia (AML) selective (ZAML - ZCFUGM

[13] = 24 hours, 2 μM cytochalasin B, 100 nM vinblastine or 10 nM cryptophycin compounds

CC[C@]1(O)C[C@@H]2CN(CCc3c([nH]c4ccccc34)[C@@](C(=O)OC)(c3cc4c(cc3OC)N(C)[C@H]3[C@@](O)(C(=O)OC)[C@H](OC(C)=O)[C@]5(CC)C=CCN6CC[C@]43[C@@H]65)C2)C1 [vinblastine]
increase in cell number in the 24 hours following removal of the drug [1]: approximately 3 fold
microtubule depolymerization after taxol pretreatment ([2]; 3 hours 10 μM taxol, then 100 nM vinblastine or 10 nM cryptophycin compound, 24 hours): pretreatment with taxol prevented microtubule depolymerization
effect on vimentin intermediate filaments ([2]; 24 hours, 100 nM vinblastine or 10 nM cryptophycin compounds): vimentin intermediate filaments collapsed
effect on microtubules [2, 13]: marked depletion of microtubules; also recorded: complete depolymerization of microtubules
reversibility of microtubule depolymerization after removal of the drug ([2]; 24 hr treatment (100 nM vinblastine or 10 nM cryptophycins), then 1 hour or 24 hours drug-free medium): complete morphological recovery by 24 hour

COc1ccc(C[C@H]2NC(=O)/C=C/C[C@@H]([C@H](C)[C@H]3O[C@@H]3c3ccccc3)OC(=O)[C@H](CC(C)C)OC(=O)[C@H](C)CNC2=O)cc1Cl [Cryptophycin 1]
Differential in Zone Units, Corbett Assay ([3]; 12.5 μg/disk): > 400 zone units
Type of Cytotoxicity, Corbett Assay ([3]; 12.5 μg/disk): E/T
% Body Wt. Loss at Nadir [4]: 0%
Cures [4]: 0/4
Log Kill [4]: 1.8
T/C [4]: 2%
antifungal activity (strains of Cryptococcus): very active against strains of Cryptococcus
% Body Wt. Loss at Nadir [5]: Gain
Cures [5]: 0/5
Log Kill [5]: 1.5
T/C [5]: 6%
SKOV3 IC50 [6]: 0.026 ng/mL
% Body Wt. Loss at Nadir [7]: -1%
Cures [7]: 0/5
Log Kill [7]: 1.4
T/C [7]: 5%
% Body Wt. Loss at Nadir (H125 Human Adenosq-lung): -15%
Cures (H125 Human Adenosq-lung): 0/5
Log Kill (H125 Human Adenosq-lung): 1.1
T/C (H125 Human Adenosq-lung): 9%
dead (animals) (H125 Human Adenosq-lung): 1/5
LoVo IC50 ([8]; Table 1): 0.003 ng/mL
LoVo IC50 ([8]; Table 2): 0.001 ng/mL
% Body Wt. Loss at Nadir (M17/0 (Adr. Sens.)): -10%
Cures (M17/0 (Adr. Sens.)): 0/5
Log Kill (M17/0 (Adr. Sens.)): < 1
T/C (M17/0 (Adr. Sens.)): 23%
% Body Wt. Loss at Nadir [9]: -11%
Cures [9]: 0/5
Log Kill [9]: 1.3
T/C [9]: 7%
% Body Wt. Loss at Nadir (MX-1 Human Breast): -3%
Cures (MX-1 Human Breast): 0/5
Log Kill (MX-1 Human Breast): 2.0
T/C (MX-1 Human Breast): 3%
in vivo activity (in words) [10]: active against a broad spectrum of murine and human tumors implanted in mice
cause of lethal toxicity observed during testing ([10]; mice): leucopenia
tumor burden T/C (mean tumor burden in treated animals/mean tumor burden untreated animals) ([10]; text summary over the tumors named in the sentence): less than 10%
% Body Wt. Loss at Nadir (Human Sm Cell L. DMS273): 0%
Cures (Human Sm Cell L. DMS273): 0/5
Log Kill (Human Sm Cell L. DMS273): < 1
T/C (Human Sm Cell L. DMS273): 27%
% Body Wt. Loss at Nadir (LNCaP Human Prostate): -6%
Cures (LNCaP Human Prostate): 0/5
Log Kill (LNCaP Human Prostate): < 1
T/C (LNCaP Human Prostate): 26%
KB IC50 ([11]; Table 1): 0.005 ng/mL
KB IC50 ([11]; Table 2): 0.0025 ng/mL

C=C1[C@@H](C)[C@H]2[C@H](Cc3ccccc3)NC(=O)[C@]23OC(=O)/C=C/[C@H](O)CCC[C@@H](C)C/C=C/[C@H]3[C@@H]1O [Cytochalasin B, cytochalasin B]
effect on microfilaments ([2]; 2 μM cytochalasin B, 24 hours): complete depolymerization of microfilaments
effect on microtubules [2, 13]: did not affect the distribution of either microtubules or intermediate filaments

CC(=O)O[C@H]1C(=O)[C@@]2(C)[C@H]([C@H](OC(=O)c3ccccc3)[C@]3(O)C[C@H](OC(=O)[C@H](O)[C@@H](NC(=O)c4ccccc4)c4ccccc4)C(C)=C1C3(C)C)[C@]1(OC(C)=O)CO[C@@H]1C[C@@H]2O [taxol, reference compound]
Differential in Zone Units, Corbett Assay ([3]; 0.2 μg/disk): ≥ 400 zone units
Type of Cytotoxicity, Corbett Assay ([3]; 0.2 μg/disk): M/H/T
microtubule organization in taxol-treated cells ([2]; 10 μM taxol): extensively bundled

COc1cc([C@@H]2c3cc4c(cc3[C@@H](O[C@@H]3O[C@@H]5CO[C@@H](C)O[C@H]5[C@H](O)[C@H]3O)[C@H]3COC(=O)[C@H]23)OCO4)cc(OC)c1O [VP-16, etoposide, reference compound]
Differential in Zone Units, Corbett Assay ([3]; 5 μg/disk): 350 zone units
Differential in Zone Units, Valeriote Assay [12]: 260 zone units
